This is an account of results in patent US9943524B2, “Use of alkaloid in preparing pharmaceutical compositions for preventing or treating pulmonary fibrosis” (China Pharmaceutical University, priority 2014, dated 2018).

The structures appear in SMILES notation.

Series [1] relates to TGF-β1. The note with it: cited from earlier work.
For series [2] the following is noted: cited from earlier work.
Series [3] concerns pulmonary fibrosis mice induced by bleomycin. In words: Determination of mice mortality (Embodiment 4). The class given is in vivo, C57BL/6 mice. Here is the method: Female C57BL/6 mice (eight-week-old) are established for models after 7 days, the time is set for the mice to adapt to the environment. After fasts for overnight, the mice are anaesthetized by 3% chloral hydrate and fixed. Sterilize and incise neck skin longitudinally as little injury as possible. Split fascia and muscle with tweezers longitudinally and expose the windpipe. Then, about 35 μl (3.5 mg/kg) bleomycin are injected into windpipe with microinjector. Put the mice upright rapidly and rotate the mice for 3˜5 minutes, so that bleomycin is able to enter into the pulmones uniformly. Observe the breathing of mice. Sterilize neck injury with 75% alcohol tampon and stitch the wound, then 1 drop or 2 drops of benzylpenicillin injection is/are dripped into the suture. Put the mice back into dry and clean cages, and feed them normally after waking up. Operations are done on operating table at about […]. Physiological saline using in injection is injected into windpipe of sham operation group.
Model animals are divided into prevention groups and treatment groups, then drugs are given to the two groups respectively. According to internationally methods of drug administration, drugs are given continuously to the prevention groups by means of intragastric administration from the second day after successfully establishing model to the 14th day, and drugs are given continuously to treatment groups by means of intragastric administration from the 8th day after successfully establishing model to the 21th day. Groups and dosage regimen are shown in tab.1.
From the 0th day (the day when the model is established) to 14th day, drugs are given continuously to prevention groups. From the 8th day after successfully establishing model to 21th day, drugs are given continuously to treatment groups. Statistical analysis of death of animals in each group is carried on every day and the survival rate of animals in each group is calculated. Results are shown in tab.2.

Consider `Cc1ccc(=O)n(-c2ccccc2)c1` [Pirfenidone, pirfenidone, reference compound], for which, in series [1], the “inhibition of pro-fibrogenic factors” value is “can inhibit the pro-fibrogenic factors such as TGF-β1”. Moreover, the clinical side effects entry in series [2] was “photosensitization”. The Survival rate is 70% in series [3] (prevention groups, 300 mg/kg intragastric to the 14th day) and 67% in series [3] (treatment groups, 300 mg/kg intragastric from the 8th to the 21th day). The “Mortality (number of dead animals)” value was determined as 3 in series [3] (prevention groups, 300 mg/kg intragastric to the 14th day, 10 animals) and 6 in series [3] (treatment groups, 300 mg/kg intragastric from the 8th to the 21th day, 18 animals).
